Patent US8367668B2, “Pyridazinone derivatives” (Merck Patent Gesellschaft mit Beschränkter Haftung, priority 2007, dated 2013)

target: T1, Met kinase (Homo sapiens, UniProt P08581); assay: Met kinase inhibition (enzyme assay), flashplate method; assay type: biochemical
T1 construct: 6His (N); purchased Upstate 14-526; host or cells: Sf21 insect cells (S. frugiperda), baculovirus
From the text: Measurement of Met Kinase Activity
According to the manufacturer's data (Met, active, upstate, catalogue No. 14-526), Met kinase is expressed for the purposes of protein production in insect cells (Sf21; S. frugiperda) and subsequent affinity-chromatographic purification as “N-terminal 6His-tagged” recombinant human protein in a baculovirus expression vector.
The kinase activity can be measured using various available measurement systems. In the scintillation proximity method (Sorg et al., J. of Biomolecular Screening, 2002, 7, 11-19), the flashplate method or the filter binding test, the radioactive phosphorylation of a protein or peptide as substrate is measured using radioactively labelled ATP (^32P-ATP, ^33P-ATP). In the case of the presence of an inhibitory compound, a reduced radioactive signal, or none at all, can be detected. Furthermore, homogeneous time-resolved fluorescence resonance energy transfer (HTR-FRET) and fluoroescence polarisation (FP) technologies can be used as assay methods (Sills et al., J. of Biomolecular Screening, 2002, 191-214).
Flashplate Method (Met Kinase)
The test plates used are 96-well Flashplate® microtitre plates from Perkin Elmer (Cat. No. SMP200). The components of the kinase reaction described below are pipetted into the assay plate. The Met kinase and the substrate poly Ala-Glu-Lys-Tyr, (pAGLT, 6:2:5:1), are incubated for 3 hrs at room temperature with radioactively labelled ^33P-ATP in the presence and absence of test substances in a total volume of 100 μl. The reaction is terminated using 150 μl of a 60 mM EDTA solution. After incubation for a further 30 min at room temperature, the supernatants are filtered off with suction, and the wells are washed three times with 200 μl of 0.9% NaCl solution each time. The measurement of the bound radioactivity is carried out by means of a scintillation measuring instrument (Topcount NXT, Perkin-Elmer).
The full value used is the inhibitor-free kinase reaction. This should be approximately in the range 6000-9000 cpm. The pharmacological zero value used is staurosporin in a final concentration of 0.1 mM. The inhibitory values (IC50) are determined using the RS1_MTS program.
Kinase reaction conditions per well: • 30 μl of assay buffer • 10 μl of substance to be tested in assay buffer with 10% of DMSO • 10 μl of ATP (final concentration 1 μM cold, 0.35 μCi of ^33P-ATP) • 50 μl of Met kinase/substrate mixture in assay buffer; • (10 ng of enzyme/well, 50 ng of pAGLT/well)
50 mM HEPES • 3 mM magnesium chloride • 3 μM sodium orthovanadate • 3 mM manganese(II) chloride • 1 mM dithiothreitol (DTT)
pH=7.5 (to be set using sodium hydroxide)
60 mM Titriplex III (EDTA)
Met kinase: Upstate, Cat. No. 14-526, Stock 1 μg/10 μl; spec. activity 954 U/mg;
Poly-Ala-Glu-Lys-Tyr, 6:2:5:1: Sigma Cat. No. P1152
Pharmacological Data Met Kinase Inhibitions (Enzyme Assay)

T1 sequence (P08581 974-1390 limits assumed): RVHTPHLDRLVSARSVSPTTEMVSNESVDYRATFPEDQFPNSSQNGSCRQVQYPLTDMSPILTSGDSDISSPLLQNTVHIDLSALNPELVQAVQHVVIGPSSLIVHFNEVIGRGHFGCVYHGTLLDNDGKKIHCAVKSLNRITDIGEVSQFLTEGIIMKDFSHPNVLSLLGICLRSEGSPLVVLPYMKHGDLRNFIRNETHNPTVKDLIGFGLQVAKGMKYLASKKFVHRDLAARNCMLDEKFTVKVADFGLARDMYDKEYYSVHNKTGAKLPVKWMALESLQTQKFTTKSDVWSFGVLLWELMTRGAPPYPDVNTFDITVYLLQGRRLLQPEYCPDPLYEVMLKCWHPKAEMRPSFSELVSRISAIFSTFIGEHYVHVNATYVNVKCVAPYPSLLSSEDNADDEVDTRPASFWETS

IC50, 10 to 1000 nM:
CCOC(=O)Nc1cccc(Cn2nc(-c3ccc(C(=O)NCCO)cc3)ccc2=O)c1 [A2, ethyl(3-{3-[4-(2-hydroxyethylcarbamoyl)phenyl]-6-oxo-6H-pyridazin-1-ylmethyl}phenyl)carbamate]
CCOC(=O)Nc1cccc(Cn2nc(-c3ccc(C(=O)NCCOC)cc3)ccc2=O)c1 [A3]
CCOC(=O)Nc1cccc(Cn2nc(-c3ccc(C(=O)NCCCO)cc3)ccc2=O)c1 [A5]
CCOC(=O)Nc1cccc(Cn2nc(-c3ccc(C(=O)NCC(O)CO)cc3)ccc2=O)c1 (stereo not shown) [A6]
CCOC(=O)Nc1cccc(Cn2nc(-c3ccc(C(=O)NCCS(C)(=O)=O)cc3)ccc2=O)c1 [A7]
CCOC(=O)CNC(=O)c1ccc(-c2ccc(=O)n(Cc3cccc(NC(=O)OCC)c3)n2)cc1 [A8]
CCOC(=O)CN(C)C(=O)c1ccc(-c2ccc(=O)n(Cc3cccc(NC(=O)OCC)c3)n2)cc1 [A9]
CCOC(=O)Nc1cccc(Cn2nc(-c3ccc(C(=O)NCCCn4ccnc4)cc3)ccc2=O)c1 [A10]
CCOC(=O)Nc1cccc(Cn2nc(-c3ccc(C(=O)NCCCCN(C)C)cc3)ccc2=O)c1 [A11]
CCOC(=O)Nc1cccc(Cn2nc(-c3ccc(C(=O)N(C)CCO)cc3)ccc2=O)c1 [A12]
CCOC(=O)CCNC(=O)c1ccc(-c2ccc(=O)n(Cc3cccc(NC(=O)OCC)c3)n2)cc1 [A13]
CCOC(=O)Nc1cccc(Cn2nc(-c3ccc(C(=O)NCCCN(C)C)cc3)ccc2=O)c1 [A14]
CCOC(=O)Nc1cccc(Cn2nc(-c3ccc(C(=O)NCCN(C)C)cc3)ccc2=O)c1 [A15]
CCOC(=O)Nc1cccc(Cn2nc(-c3ccc(C(=O)NCCCOC)cc3)ccc2=O)c1 [A16]
CCOC(=O)Nc1cccc(Cn2nc(-c3ccc(C(=O)NCCN4CCOCC4)cc3)ccc2=O)c1 [A17]
CCOC(=O)Nc1cccc(Cn2nc(-c3ccc(C(=O)NCCN4CCCCC4)cc3)ccc2=O)c1 [A18]
CCOC(=O)Nc1cccc(Cn2nc(-c3ccc(C(=O)N(C)CCN(CC)CC)cc3)ccc2=O)c1 [A19]
CCOC(=O)Nc1cccc(Cn2nc(-c3ccc(C(=O)NCCN(CC)CC)cc3)ccc2=O)c1 [A20]
CCOC(=O)Nc1cccc(Cn2nc(-c3ccc(C(=O)NCCNC(C)C)cc3)ccc2=O)c1 [A21]
CCOC(=O)Nc1cccc(Cn2nc(-c3ccc(C(=O)NCCCN4CCN(C)CC4)cc3)ccc2=O)c1 [A22]
CCOC(=O)Nc1cccc(Cn2nc(-c3ccc(C(=O)NCCCN4CCCC4)cc3)ccc2=O)c1 [A23]
CCOC(=O)Nc1cccc(Cn2nc(-c3ccc(C(=O)NCCCN4CCCC4=O)cc3)ccc2=O)c1 [A24]
CCOC(=O)Nc1cccc(Cn2nc(-c3ccc(C(=O)NCCCN(CC)CC)cc3)ccc2=O)c1 [A25]
CCOC(=O)Nc1cccc(Cn2nc(-c3ccc(C(=O)NCCCN4CCCCC4)cc3)ccc2=O)c1 [A26]
CCOC(=O)Nc1cccc(Cn2nc(-c3ccc(C(=O)NCCCN4CCOCC4)cc3)ccc2=O)c1 [A27]
CCOC(=O)Nc1cccc(Cn2nc(-c3ccc(C(=O)NCCCCN4CCCC4)cc3)ccc2=O)c1 [A28]
CCOC(=O)Nc1cccc(Cn2nc(-c3ccc(C(=O)NCCCCO)cc3)ccc2=O)c1 [A42]
CCOC(=O)Nc1cccc(Cn2nc(-c3cccc(C(=O)NCCCCNC(=O)OC(C)(C)C)c3)ccc2=O)c1 [A43, ethyl(3-{3-[3-(4-tert-butoxycarbonylaminobutylcarbamoyl)-phenyl]-6-oxo-6H-pyridazin-1-ylmethyl}phenyl)carbamate]
CCOC(=O)Nc1cccc(Cn2nc(-c3cccc(C(=O)NCCCNC(=O)OC(C)(C)C)c3)ccc2=O)c1 [A44]
CCOC(=O)Nc1cccc(Cn2nc(-c3cccc(C(=O)NCCNC(=O)OC(C)(C)C)c3)ccc2=O)c1 [A45]
CCOC(=O)Nc1cccc(Cn2nc(-c3cccc(C(=O)NCCCCN(C)C)c3)ccc2=O)c1 [A46]
